Test results: US4454145A, “Nicotinates of alkanediols having hypolipidaemic activity and pharmaceutical compositions containing them” (Alfa Farmaceutici S.p.A., priority 1981, dated 1984)
Read-outs that look alike come from different tables or passages of the source.

How the values were obtained:
Format in all cases: in vivo, Male Wistar rats
[1] = test system: hypertriglyceridemia caused by fructose; test: Test A: decrease of triglycerides content in the serum of rats due to hypertriglyceridemia caused by fructose; conditions: for change in vivo at 50 mg/kg: Rattus norvegicus, po, 72 h, read-out: ΔTGhematic (percent decrease of the hematic triglycerides); for change in vivo at 50 mg/kg / ΔTGhematic (percent decrease of the hematic triglycerides): 50 mg/Kg/os/die, three days, fructose diet; for ED50, Test diet of fructose: Table 3, oral
Description: (A) Determination of the decrease of triglycerides content in the serum of rats due to hypertriglyceridemia caused by fructose.
Male Wistar rats weighing 260±20 g, normally fed, subdivided in groups of 6 animals each, are used. The test lasts three days: in the first day the animals are normally fed but are kept without drinking water; in the second and third day they receive a 20% (w/v) water solution of fructose instead of water; moreover in the second day they are fed by means of a gastric probe with further 4 ml of 50% (w/v) aqueous solution of fructose. […] The animals are sacrificed undr ethereal anaesthesia 4 hours after the treatment of the third day and the blood is drawn by an intracardiacal injection.
The percent decrease of the hematic triglycerides due to the treatment with the compound to be tested is expressed as ΔTGhematic and is represented by the following formula: [formula] TG=triglycerides.

[2] = test system: total cholesterol in rats fed with hypercholesterolemic diet; test: Test B: variation of total cholesterol in rats fed with Tensho et al. hypercholesterolemic diet; conditions: Table 3, oral
Description: (B) Determination of the variation of total cholesterol in rats fed with Greenberg […] diet modified according to Tensho et al.
The rats are subdivided in 3 experimental groups:
(1) control group, normally fed;
(2) diet group, fed only with the Tensho diet;
(3) treated group, fed with the Tensho diet and treated with the compounds to be tested.
At the beginning of the eighth day the rats, fasted since the previous evenging, are sacrified under ethereal anaesthesia by means of an intracardiacal injection. […] The percent decrease of the hematic cholesterol is calculated by means of the following formula: [formula] Ch=cholesterol

[3] = test system: hypertriglyceridemia caused by ethanol; test: Test C: decrease of triglycerides content in the serum of rats based on hypertriglyceridemia caused by ethanol; conditions: Table 3, oral, ethanol in drinking water
Description: (C) Determination of the decrease of triglycerides content in the serum of rats based on hypertriglyceridemia caused by ethanol. Male Wistar rats weighing 260±20 g, normally fed, are subdivided in experimental groups of 10 animals each: (1) control group, normally fed; (2) diet group, given drinking water containing 10% (v/v) of ethanol since the second day; (3) treated group, given drinking water containing 10% (v/v) of ethanol and treated with the compounds to be tested from the second day. At the beginning of the fourth day, after 18 hours of fast, the animals are sacrificed under ethereal anaesthesia by means of an intracardiacal injection. The dosage of the triglycerides is carried out on the serum using the enzymatic method described by […]. and […]. […] The percent decrease of the triglycerides has been calculated as above.

`CC(C)(CCCCC(C)(C)COC(=O)c1cccnc1)COC(=O)c1cccnc1` [Example 1, 2,2,7,7-Tetramethyl-1,8-octanediol dinicotinate] was tested, and the change in vivo at 50 mg/kg ([1]; Table 1, esters) was -60%.

For `CC(C)(CCCCCC(C)(C)COC(=O)c1cccnc1)COC(=O)c1cccnc1` [Example 2, 2,2,8,8-Tetramethyl-1,9-nonanediol dinicotinate], the change in vivo at 50 mg/kg ([1]; Table 1, esters) was -80%.

In the case of `CC(C)(CCCCCCC(C)(C)COC(=O)c1cccnc1)COC(=O)c1cccnc1` [Example 3, 2,2,9,9-Tetramethyl-1,10-decanediol dinicotinate], the “ED50, Test diet of Tensho” value [2] is reported as 0.0900 mmole/Kg/os/die, the change in vivo at 50 mg/kg ([1]; Table 1, esters) is reported as -99% and the “ED50, Test diet of fructose” value [1] is reported as 0.0034 mmole/Kg/os/die. For the same molecule, the “ED50, Test diet of ethanol” value [3] was 0.0727 mmole/Kg/os/die.

In the case of `CC(C)(CCCCCCCC(C)(C)COC(=O)c1cccnc1)COC(=O)c1cccnc1` [Example 4, 2,2,10,10-Tetramethyl-1,11-undecanediol dinicotinate], the “ED50, Test diet of Tensho” value [2] is reported as 0.0891 mmole/Kg/os/die, the change in vivo at 50 mg/kg ([1]; Table 1, esters) is reported as -92.5% and the “ED50, Test diet of fructose” value [1] is reported as 0.0029 mmole/Kg/os/die. For the same molecule, the “ED50, Test diet of ethanol” value [3] was 0.0718 mmole/Kg/os/die.

`CC(C)(CCCCCCCCC(C)(C)COC(=O)c1cccnc1)COC(=O)c1cccnc1` [Example 5, 2,2,11,11-Tetramethyl-1,12-dodecanediol dinicotinate] was tested, and the “ED50, Test diet of Tensho” value [2] was 0.0880 mmole/Kg/os/die, the change in vivo at 50 mg/kg ([1]; Table 1, esters) was -98% and the “ED50, Test diet of fructose” value [1] was 0.0026 mmole/Kg/os/die. The “ED50, Test diet of ethanol” value [3] was 0.0707 mmole/Kg/os/die.

`CCC(C)(CCCCCCC(C)(CC)C(=O)O)C(=O)O` (stereo not drawn) [Example 7, 2,9-Diethyl-2,9-dimethyl-1,10-decanedioic acid] gave a change in vivo at 50 mg/kg ([1]; Table 2, acids and alcohols) of -82.1%.

For `CCC(C)(CO)CCCCCCC(C)(CC)CO` (stereo not drawn) [Example 8, 2,9-Diethyl-2,9-dimethyl-1,10-decanediol], the change in vivo at 50 mg/kg ([1]; Table 2, acids and alcohols) was -81.5%.

Molecule `CC(C)(CCCCCCCC(C)(C)C(=O)O)C(=O)O` [Example 13] has a change in vivo at 50 mg/kg ([1]; Table 2, acids and alcohols) of -91.8%.

`CC(C)(CO)CCCCCCCC(C)(C)CO` [Example 14] was tested, and the change in vivo at 50 mg/kg ([1]; Table 2, acids and alcohols) was -92%.

For `CCC(C)(CCCCCCCC(C)(CC)C(=O)O)C(=O)O` (stereo not drawn) [Example 15], the change in vivo at 50 mg/kg ([1]; Table 2, acids and alcohols) was -97%.

Molecule `CCC(C)(CO)CCCCCCCC(C)(CC)CO` (stereo not drawn) [Example 16] has a change in vivo at 50 mg/kg ([1]; Table 2, acids and alcohols) of -90%.

For `CC(C)(CCCCCCCCC(C)(C)C(=O)O)C(=O)O` [Example 17], the change in vivo at 50 mg/kg ([1]; Table 2, acids and alcohols) was -97.5%.

Molecule `CC(C)(CO)CCCCCCCCC(C)(C)CO` [Example 18] has a change in vivo at 50 mg/kg ([1]; Table 2, acids and alcohols) of -93.4%.

For `CCC(C)(CCCCCCCCC(C)(CC)C(=O)O)C(=O)O` (stereo not drawn) [Example 19], the change in vivo at 50 mg/kg ([1]; Table 2, acids and alcohols) was -57.4%.

`CCC(C)(CO)CCCCCCCCC(C)(CC)CO` (stereo not drawn) [Example 20] gave a change in vivo at 50 mg/kg ([1]; Table 2, acids and alcohols) of -50.1%.

For `CCCC(C)(CCCCCCCCC(C)(CCC)C(=O)O)C(=O)O` (stereo not drawn) [Example 21], the change in vivo at 50 mg/kg ([1]; Table 2, acids and alcohols) was -64.3%.

With `CCCC(C)(CO)CCCCCCCCC(C)(CO)CCC` (stereo not drawn) [Example 22] the change in vivo at 50 mg/kg ([1]; Table 2, acids and alcohols) was -45.2%.

`CCCCC(C)(CCCCCCCCC(C)(CCCC)C(=O)O)C(=O)O` (stereo not drawn) [Example 23] gave a change in vivo at 50 mg/kg ([1]; Table 2, acids and alcohols) of -62.4%.

With `CCCCC(C)(CO)CCCCCCCCC(C)(CO)CCCC` (stereo not drawn) [Example 24] the change in vivo at 50 mg/kg ([1]; Table 2, acids and alcohols) was -60.2%.

In the case of `O=C(O)c1cccnc1` [Nicotinic acid, reference compound], the “ED50, Test diet of Tensho” value [2] is reported as 0.3020 mmole/Kg/os/die, the “ED50, Test diet of fructose” value [1] is reported as 0.4760 mmole/Kg/os/die and the “ED50, Test diet of ethanol” value [3] is reported as 0.4800 mmole/Kg/os/die.

Molecule `CCC(C)(CCCCCCC(C)(CC)COC(=O)c1cccnc1)COC(=O)c1cccnc1` (stereo not drawn) [Table 1 No. 4, 2,9-diethyl-2,9-dimethyl-1,10-decanediol dinicotinate] has a change in vivo at 50 mg/kg ([1]; Table 1, esters) of -87%.

Molecule `CCCC(C)(CCCCCCC(C)(CCC)COC(=O)c1cccnc1)COC(=O)c1cccnc1` (stereo not drawn) [Table 1 No. 5, 2,9-dimethyl-2,9-di-n-propyl-1,10-decanediol dinicotinate] has a change in vivo at 50 mg/kg ([1]; Table 1, esters) of -90%.

`CCCCC(C)(CCCCCCC(C)(CCCC)COC(=O)c1cccnc1)COC(=O)c1cccnc1` (stereo not drawn) [Table 1 No. 6, 2,9-di-n-butyl-2,9-dimethyl-1,10-decanediol dinicotinate] was tested, and the change in vivo at 50 mg/kg ([1]; Table 1, esters) was -85.6%.

Molecule `CCC(C)(CCCCCCCC(C)(CC)COC(=O)c1cccnc1)COC(=O)c1cccnc1` (stereo not drawn) [Table 1 No. 8, 2,10-diethyl-2,10-dimethyl-1,11-undecanediol dinicotinate] has a change in vivo at 50 mg/kg ([1]; Table 1, esters) of -98%.

Work on `CCC(C)(CCCCCCCCC(C)(CC)COC(=O)c1cccnc1)COC(=O)c1cccnc1` (stereo not drawn) [Table 1 No. 10, 2,11-diethyl-2,11-dimethyl-1,12-dodecanediol dinicotinate] yielded a change in vivo at 50 mg/kg ([1]; Table 1, esters) of -66%.

`CCCC(C)(CCCCCCCCC(C)(CCC)COC(=O)c1cccnc1)COC(=O)c1cccnc1` (stereo not drawn) [Table 1 No. 11, 2,11-dimethyl-2,11-di-n-propyl-1,12-dodecanediol dinicotinate] showed a change in vivo at 50 mg/kg ([1]; Table 1, esters) of -65.8%.

With `CCCCC(C)(CCCCCCCCC(C)(CCCC)COC(=O)c1cccnc1)COC(=O)c1cccnc1` (stereo not drawn) [Table 1 No. 12, 2,11-di-n-butyl-2,11-dimethyl-1,12-dodecanediol dinicotinate] the change in vivo at 50 mg/kg ([1]; Table 1, esters) was -59.1%.

`CC(C)(CCCCC(C)(C)C(=O)O)C(=O)O` [Table 2 No. 1] was tested, and the “ΔTGhematic (percent decrease of the hematic triglycerides)” value ([1]; Table 2, acids and alcohols) was “inactive”.

`CC(C)(CO)CCCCC(C)(C)CO` [Table 2 No. 2, 2,2,7,7-tetramethyl-1,8-octanediol] was tested, and the “ΔTGhematic (percent decrease of the hematic triglycerides)” value ([1]; Table 2, acids and alcohols) was “inactive”.

For `CC(C)(CCCCCC(C)(C)C(=O)O)C(=O)O` [Table 2 No. 3], the “ΔTGhematic (percent decrease of the hematic triglycerides)” value ([1]; Table 2, acids and alcohols) was “inactive”.

In the case of `CC(C)(CO)CCCCCC(C)(C)CO` [Table 2 No. 4, 2,2,8,8-tetramethyl-1,9-nonanediol], the “ΔTGhematic (percent decrease of the hematic triglycerides)” value ([1]; Table 2, acids and alcohols) is reported as “inactive”.

Molecule `CC(C)(CCCCCCC(C)(C)C(=O)O)C(=O)O` [Table 2 No. 5] has a change in vivo at 50 mg/kg ([1]; Table 2, acids and alcohols) of -91.8%.

`CC(C)(CO)CCCCCCC(C)(C)CO` [Table 2 No. 6, 2,2,9,9-tetramethyl-1,10-decanediol] was tested, and the change in vivo at 50 mg/kg ([1]; Table 2, acids and alcohols) was -94%.

`CCCC(C)(CCCCCCC(C)(CCC)C(=O)O)C(=O)O` (stereo not drawn) [Table 2 No. 9] was tested, and the change in vivo at 50 mg/kg ([1]; Table 2, acids and alcohols) was -89.5%.

For `CCCC(C)(CO)CCCCCCC(C)(CO)CCC` (stereo not drawn) [Table 2 No. 10, 2,9-dimethyl-2,9-di-n-propyl-1,10-decanediol], the change in vivo at 50 mg/kg ([1]; Table 2, acids and alcohols) was -88.3%.

`CCCCC(C)(CCCCCCC(C)(CCCC)C(=O)O)C(=O)O` (stereo not drawn) [Table 2 No. 11] was tested, and the change in vivo at 50 mg/kg ([1]; Table 2, acids and alcohols) was -65.4%.

For `CCCCC(C)(CO)CCCCCCC(C)(CO)CCCC` (stereo not drawn) [Table 2 No. 12, 2,9-di-n-butyl-2,9-dimethyl-1,10-decanediol], the change in vivo at 50 mg/kg ([1]; Table 2, acids and alcohols) was -58.7%.
